Test results from patent publication US20230218721A1, “INCRETIN ANALOGUE, PREPARATION METHOD THEREFOR, AND USE THEREOF” (ZHEJIANG DOER BIOLOGICS CO., LTD., priority 2020, published 2023).
Read-outs that look alike come from different tables or passages of the source. Starred links: 1 amine or outer side, 2 acyl side, 3 side chain; linkers in the order of their positions; H or OH if unused. Residues, ends and D or L forms follow the SMILES beside them. Groups on a side chain read outwards from the residue. *: point of attachment. γGlu = O=C(O)[C@H](CCC(=O)[*:2])N[*:1]; Palmitoyl = CCCCCCCCCCCCCCCC(=O)*

Assays:
GLP-1R = target: T1, GLP-1R (Homo sapiens, UniProt P43220); experiment: GLP-1R agonist activity assay, luciferase reporter gene in stably transfected CHO-K1 cells; type: cell-based; conditions: CRE-luciferase reporter, stimulation for 6 h
T1 construct: expressed in transfected cells
Text: GLP-1R agonist activity was detected using luciferase reporter gene assay (Jonathan W Day et, al.: Nat Chem Biol. 2009 October; 5 (10): 749-57). Humanized GLP-1R gene was cloned into mammalian cell expression plasmid pCDNA3.1 to construct recombinant expression plasmid pCDNA3.1-GLP-1R, and at the same time, luciferase full-length gene was cloned into pCRE plasmid to get pCRE-Luc recombinant plasmid. The pcDNA3.1-GLP-1R and pCRE-Luc plasmids were transfected into CHO-K1 cells at a molar ratio of 1:10, and the stably transfected cell strains were screened. Cells were cultured in a 9-cm cell culture dish with DMEM/F12 medium containing 10% FBS and 300 μg/ml G418. When the confluence reached about 90%, the culture supernatant was discarded. […] 2 ml DMEM/F12 medium containing 10% FBS and 300 μg/ml G418 was added for resuspension, and the number of cells was counted. […] Dulaglutide (Trade name: Trulicity®)) were diluted with DMEM/F12 medium containing 1% BSA to a series of defined concentration, 27 added into cell culture wells at 100 μl/well, and detected after stimulation for 6 h. The samples were detected according to the specification of Lucifersae reporter kit (Ray Biotech, 29 Cat: 68-LuciR-5200). […]

[1] = type: in vitro ADME, rat
Experimental: In this example, the serum stability of the incretin analogue […] was determined by the following steps: (1) The incretin analogues […] and the control (Dulaglutide) were formulated with 5 mM Tris-HCl, pH 8.5, and 0.02% TWEEN-80 solution into solutions at a concertration of 1.0 mg/ml, which were sterilized and filtered (0.22 μm, Millipore SLGP033RB), then diluted 10-fold with rat serum, mixed evenly and divided into sterile centrifuge tubes; […] (3) The GLP-1R agonist activity was detected.

[2] = cited from earlier work

T1 sequence (P43220 24-463): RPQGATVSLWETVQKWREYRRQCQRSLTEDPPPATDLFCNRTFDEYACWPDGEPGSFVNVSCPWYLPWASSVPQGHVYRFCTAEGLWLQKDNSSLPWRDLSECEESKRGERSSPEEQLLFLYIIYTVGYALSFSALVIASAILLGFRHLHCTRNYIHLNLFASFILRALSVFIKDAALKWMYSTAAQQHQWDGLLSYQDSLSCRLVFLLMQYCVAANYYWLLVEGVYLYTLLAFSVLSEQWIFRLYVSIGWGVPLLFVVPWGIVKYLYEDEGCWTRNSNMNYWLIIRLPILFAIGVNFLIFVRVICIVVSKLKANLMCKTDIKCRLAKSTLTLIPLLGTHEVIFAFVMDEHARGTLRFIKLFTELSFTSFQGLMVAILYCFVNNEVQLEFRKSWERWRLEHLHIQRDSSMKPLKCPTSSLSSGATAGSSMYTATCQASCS

With Dulaglutide the EC50 (GLP-1R) was 0.01 nM.
For `CCCCCCCCCCCCCCCC(=O)N[C@@H](CCC(=O)NCCCC[C@H](NC(=O)[C@H](CC(=O)O)NC(=O)[C@H](CO)NC(=O)[C@@H](NC(=O)[C@H](Cc1ccccc1)NC(=O)[C@@H](NC(=O)CNC(=O)[C@H](CCC(=O)O)NC(=O)[C@H](CO)NC(=O)[C@@H](N)Cc1ccc(O)cc1)[C@@H](C)O)[C@@H](C)O)C(=O)N[C@@H](CO)C(=O)N[C@@H](CCCCN)C(=O)N[C@@H](Cc1ccc(O)cc1)C(=O)N[C@@H](CC(C)C)C(=O)N[C@@H](CC(=O)O)C(=O)N[C@@H](CO)C(=O)N[C@@H](CCC(N)=O)C(=O)N[C@@H](C)C(=O)N[C@@H](C)C(=O)N[C@@H](CCC(N)=O)C(=O)N[C@@H](CC(=O)O)C(=O)N[C@@H](Cc1ccccc1)C(=O)N[C@H](C(=O)N[C@@H](CCC(N)=O)C(=O)N[C@@H](Cc1c[nH]c2ccccc12)C(=O)N[C@@H](CC(C)C)C(=O)N[C@@H](CC(C)C)C(=O)N[C@@H](C)C(=O)NCC(=O)NCC(=O)N1CCC[C@H]1C(=O)N[C@@H](CO)C(=O)N[C@@H](CO)C(=O)NCC(=O)N[C@@H](C)C(=O)N1CCC[C@H]1C(=O)N1CCC[C@H]1C(=O)N1CCC[C@H]1C(=O)N[C@@H](CO)C(N)=O)C(C)C)C(=O)O` [P3YELAN] (H-YSEGTFTSDK([γGlu-Palmitoyl])SKYLDSQAAQDFVQWLLAGGPSSGAPPPS-NH2), the “residual GLP-1R agonist activity over time in serum” value [1] was “maintains a higher GLP-1R agonist activity in a long time”.
In the case of Semeglutide, the “average clinical weight loss” value ([2]; 0.5 mg treatment group) is given as 4.2 kg and the “average clinical weight loss” value ([2]; 1.0 mg treatment group) is given as 5.5 kg.
